The results in this text go back to patent US20190041383A1, “METHOD FOR PREPARING SENESCENT MELANOCYTES, CELLS PREPARED BY METHOD, AND METHOD FOR SCREENING FOR SENESCENCE-ALLEVIATING MATERIAL BY USING CELLS” (AMOREPACIFIC CORPORATION, priority 2015, published 2019).

What all share (assay type): cell-based, human
One assay has as its system p16 and p21. The experiment in a line: p16 and p21 mRNA expression (Q-PCR) in senescent melanocytes after treatment with whitening material. Particulars: treated for 2 weeks from 48 h after final UVB irradiation, four times at an interval of 3 days; p<0.05 / p<0.01 (FIG. 6). How it is done: Human primary melanocytes (Life Technologies, CA, USA) were cultured in a 5% CO2 incubator at room temperature by using M-254 medium (Gibco BRL, NY, USA) supplemented with human melanocyte growth supplement (HMGS) (Gibco BRL, NY, USA), placed on a 100 mm culture dish so that the number of cells was 2×10^5, allowed to attach to the dish wall for the night, and irradiated with UVB at a strength of 11 mJ/cm^2, 20 mJ/cm^2, and 30 mJ/cm^2 two times at an interval of 24 hours. cDNA was prepared by obtaining RNA from cells 2 weeks after being irradiated with UVB at a strength of 20 mJ/cm^2 two times at an interval of 24 hours, and a change in mRNA level was measured by Q-PCR (Applied biosystems, 7500 Fast) by using p16 and p21 specific primers. As the Q-PCR experiment, a cycle at 95° C. for 15 seconds and at 60° C. for 60 seconds was repeatedly conducted 40 times in total, and the relative value of an increase in gene expression as compared to that of a control group was measured.

Assay [1] has as its system melanocytes irradiated with UVB at 20 mJ/cm^2 two times (senescent melanocytes). The experiment in a line: β-galactosidase activity in senescent melanocytes after treatment with whitening material. To be noted: 30 μM, medium changed every 3 days (4 times) from 48 h after UVB, read after two weeks, vs vehicle (DMSO) control; p<0.05 (FIG. 5a). As to the method:
Human primary melanocytes (Life Technologies, CA, USA) were cultured in a 5% CO2 incubator at room temperature by using M-254 medium (Gibco BRL, NY, USA) supplemented with human melanocyte growth supplement (HMGS) (Gibco BRL, NY, USA), placed on a 100 mm culture dish so that the number of cells was 2×10^5, allowed to attach to the dish wall for the night, and irradiated with UVB at a strength of 11 mJ/cm^2, 20 mJ/cm^2, and 30 mJ/cm^2 two times at an interval of 24 hours.
After UVB irradiation under the conditions of Example 1, β-galactosidase activity, which is a representative senescence index of cell, has been measured and it has been confirmed that the activity increased in proportion to the strength of UVB irradiated (FIG. 3a).
The cells determined in the most proper senescent state through the above-described Examples, namely, the cells prepared by irradiating the melanocytes with UVB at a strength of 20 mJ/cm^2 two times at an interval of 24 hours were cultured from the 48th hour after the UV ray irradiation in a medium containing Material A (melasolv, 30 μM) of a representative whitening material while changing the medium at an interval of 3 days (4 times in total). After two weeks, the β-galactosidase activity and the melanin content were compared to those of a control group (vehicle (DMSO) treated) (FIG. 5). […]

In assay [2] the test system is melanocytes irradiated with UVB at 20 mJ/cm^2 two times (senescent pigmentation model). The experiment in a line: melanin content in senescent melanocytes after treatment with whitening material. Particulars: 30 μM, medium changed every 3 days (4 times) from 48 h after UVB, read after two weeks, vs vehicle (DMSO) control; p<0.05 (FIG. 5b). How it is done: Human primary melanocytes (Life Technologies, CA, USA) were cultured in a 5% CO2 incubator at room temperature by using M-254 medium (Gibco BRL, NY, USA) supplemented with human melanocyte growth supplement (HMGS) (Gibco BRL, NY, USA), placed on a 100 mm culture dish so that the number of cells was 2×10^5, allowed to attach to the dish wall for the night, and irradiated with UVB at a strength of 11 mJ/cm^2, 20 mJ/cm^2, and 30 mJ/cm^2 two times at an interval of 24 hours. The melanocytes were irradiated with UVB at a strength of 11 mJ/cm^2, 20 mJ/cm^2, and 30 mJ/cm^2, respectively, two times, cultured for 2 weeks, detached from the culture dish and counted, and the same number of cells were collected in a microtube, disrupted by adding RIPA assay buffer (Millipore, 20-188) thereto, and subjected to the centrifugation at 13,500 rpm for 30 minutes to obtain a precipitate. The precipitate was dissolved in a 1N sodium hydroxide (NaOH) solution, and the colors were compared to one another (FIG. 4a), and the absorbance was measured at 450 nm to compare the content of melanin (FIG. 4b). […]

Regarding `COc1cc(/C=C/C(=O)Oc2cc(C)ccc2C(C)C)cc(OC)c1OC` [Material A, melasolv], the “increased gene expression (p16 and p21)” value with p16 and p21 is recorded as “significantly inhibited”. Also, in assay [1], the β-galactosidase activity entry is listed as “decreases”. In addition, the melanin content result in assay [2] is “significantly decreases to the level of that of the control group”.
